# Reference: patent US9550782B2, “Compounds and methods for treating diabetes” (Medivation Technologies, Inc., priority 2011, dated 2017)
# “And” between values parts separate entries of the source, which are not always exact repeats. Identical values can stand only once.
# Biological target: T1, human recombinant adrenergic α2B receptor (Homo sapiens, UniProt P18089)
# T1 construct: expressed in transfected cells; host or cells: CHO-K1
# T1 sequence (P18089 1-450): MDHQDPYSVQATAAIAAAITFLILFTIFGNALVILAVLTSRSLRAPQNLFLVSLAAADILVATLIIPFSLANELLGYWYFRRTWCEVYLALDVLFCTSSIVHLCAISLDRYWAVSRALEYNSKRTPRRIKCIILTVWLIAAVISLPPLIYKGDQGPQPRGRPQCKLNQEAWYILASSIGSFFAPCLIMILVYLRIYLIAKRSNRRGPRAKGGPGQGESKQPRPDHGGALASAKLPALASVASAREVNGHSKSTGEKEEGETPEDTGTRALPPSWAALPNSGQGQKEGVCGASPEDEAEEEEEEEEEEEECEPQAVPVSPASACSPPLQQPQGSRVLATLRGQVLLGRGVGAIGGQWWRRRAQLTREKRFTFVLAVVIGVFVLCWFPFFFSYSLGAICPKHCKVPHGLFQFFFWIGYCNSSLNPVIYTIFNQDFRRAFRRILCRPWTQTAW
# Assay: Radioligand binding, adrenergic α2B ([3H]Rauwolscine)
# Conditions: 0.03 μM compound, 0.03 µM
# How it was run: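 Readout: percent inhibition of specific [3H]Rauwolscine binding, measured by filtration and counting. Conditions: CHO-K1 cell-expressed receptor, 2.5 nM radioligand, 60 min, 25° C, Tris-HCl pH 7.4 buffer with MgCl2, EDTA, BSA. Non-specific binding: 10 μM Prazosin.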
row,Structure (SMILES),"Percentage inhibition of ligand binding, Adrenergic α2B"
1,"Cc1ccc2c(c1)c1c(n2CC(c2ccncc2)N(C)C)CCN(C)C1 (single isomer, unassigned) [150a]",88% and 96%
2,"Cc1cnc2c(c1)c1c(n2CC(N)c2ccc(C#N)cc2)CCN(C)C1 (single isomer, unassigned) [159b]",52%

# The remaining lines, values ahead:
row,"Percentage inhibition of ligand binding, Adrenergic α2B",Structure (SMILES)
1,43%,"Cc1cnc2c(c1)c1c(n2CC(N)c2ccc(C#N)cc2)CCNC1 (single isomer, unassigned) [160a]"
2,41%,"Cc1cnc2c(c1)c1c(n2CC(N)c2ccc(C#N)cc2)CCNC1 (single isomer, unassigned) [160b]"
3,93% and 103%,"Cc1ccc2c(c1)c1c(n2CC(C)(O)c2ccc(C)nc2)CN(C)CC1 (single isomer, unassigned) [196a]"

# Same assay, conditions: 0.1 μM compound
row,"Percentage inhibition of ligand binding, Adrenergic α2B [%]",Structure (SMILES)
1,100,"Cc1ccc2c(c1)c1c(n2CC(c2ccncc2)N(C)C)CCN(C)C1 (single isomer, unassigned) [150a]"

# Same assay, conditions: compound at 0.03 μM
row,"Percentage inhibition of ligand binding, Adrenergic α2B [%]",Structure (SMILES)
1,24,"OCCN1CCc2c(c3cc(Cl)ccc3n2CC(O)c2ccncc2)C1 (single isomer, unassigned) [II-93a]"

# Same assay, conditions: compound at 0.03 μM, repeat datapoints each shown, 0.03 µM
row,"Percentage inhibition of ligand binding, Adrenergic α2B (0.03 μM) [%]",Structure (SMILES)
1,10,"Cc1ccc2c(c1)c1c(n2CC(O)c2cc[n+]([O-])cc2)CCN(C)C1 (single isomer, unassigned) [69a]"
2,19,"Cc1ccc2c(c1)c1c(n2CC(O)c2cc[n+]([O-])cc2)CCN(C)C1 (single isomer, unassigned) [69b]"
3,92,"Cc1ccc2c(c1)c1c(n2CC(O)c2ccncc2)CC2CCCN2C1 (single isomer, unassigned) [76a]"
4,34,"Cc1ccc2c(c1)c1c(n2CC(O)c2ccncc2)CC2CCCN2C1 (single isomer, unassigned) [76b]"
5,35,"Cc1ccc2c(c1)c1c(n2CC(O)c2ccncc2)CC2CCCN2C1 (single isomer, unassigned) [76c]"
6,91,"Cc1ccc2c(c1)c1c(n2CC(O)c2ccncc2)CC2CCCN2C1 (single isomer, unassigned) [76d]"

# Biological target: T2, human recombinant adrenergic α2A receptor (Homo sapiens, UniProt P08913)
# T2 construct: expressed in transfected cells; host or cells: insect Sf9 cells
# T2 sequence (P08913 1-465): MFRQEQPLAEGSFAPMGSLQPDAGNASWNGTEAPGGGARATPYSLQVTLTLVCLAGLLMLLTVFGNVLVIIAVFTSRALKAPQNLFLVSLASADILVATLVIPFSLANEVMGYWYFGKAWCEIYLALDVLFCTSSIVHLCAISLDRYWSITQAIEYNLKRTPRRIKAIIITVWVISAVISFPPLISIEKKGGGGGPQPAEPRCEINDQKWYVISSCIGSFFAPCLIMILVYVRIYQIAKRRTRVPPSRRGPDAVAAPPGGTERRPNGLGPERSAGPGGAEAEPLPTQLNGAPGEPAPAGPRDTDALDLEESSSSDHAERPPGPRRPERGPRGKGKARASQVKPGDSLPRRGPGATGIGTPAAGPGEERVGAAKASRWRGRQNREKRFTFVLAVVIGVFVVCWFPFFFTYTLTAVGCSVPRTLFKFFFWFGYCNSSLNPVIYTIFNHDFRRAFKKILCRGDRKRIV
# Assay: Radioligand binding, adrenergic α2A ([3H]MK-912)
# Conditions: 0.03 μM compound; [3H]MK-912
# How it was run: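 Receptor expressed in insect Sf9 cells, assayed in 50 mM Tris-HCl pH 7.4 with 12.5 mM MgCl2 and 2 mM EDTA. Compounds incubated with 1 nM [3H]MK-912 for 60 min at 25 °C; nonspecific binding defined with 10 μM WB-4101. Filter-bound radioactivity counted; values are percent inhibition of specific binding.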
row,"Percentage inhibition of ligand binding, Adrenergic α2A [%]",Structure (SMILES)
1,37,"Cc1ccc2c(c1)c1c(n2CC(C)(O)c2ccc(C)nc2)CN(C)CC1 (single isomer, unassigned) [196a]"

# Same assay, conditions: 0.1 μM compound; [3H]MK-912
row,"Percentage inhibition of ligand binding, Adrenergic α2A [%]",Structure (SMILES)
1,−12,"Cc1cnc2c(c1)c1c(n2CC(N)c2ccc(C#N)cc2)CCN(C)C1 (single isomer, unassigned) [159b]"

# Same assay, conditions: 0.1 μM compound; [3H]MK-912; 0.1 µM
row,"Percentage inhibition of ligand binding, Adrenergic α2A",Structure (SMILES)
1,16%,"Cc1ccc2c(c1)c1c(n2CC(c2ccncc2)N(C)C)CCN(C)C1 (single isomer, unassigned) [150a]"
2,−12%,"Cc1cnc2c(c1)c1c(n2CC(N)c2ccc(C#N)cc2)CCNC1 (single isomer, unassigned) [160a]"
3,5%,"Cc1cnc2c(c1)c1c(n2CC(N)c2ccc(C#N)cc2)CCNC1 (single isomer, unassigned) [160b]"
4,58% and 71%,"Cc1ccc2c(c1)c1c(n2CC(C)(O)c2ccc(C)nc2)CN(C)CC1 (single isomer, unassigned) [196a]"

# Same assay, conditions: compound at 0.1 μM; [3H]MK-912; 0.1 µM
row,"Percentage inhibition of ligand binding, Adrenergic α2A [%]",Structure (SMILES)
1,7,"OCCN1CCc2c(c3cc(Cl)ccc3n2CC(O)c2ccncc2)C1 (single isomer, unassigned) [II-93a]"

# Same assay, conditions: compound at 0.1 μM; [3H]MK-912; repeat datapoints each shown; 0.1 µM
row,"Percentage inhibition of ligand binding, Adrenergic α2A (0.1 μM) [%]",Structure (SMILES)
1,11,"Cc1ccc2c(c1)c1c(n2CC(O)c2cc[n+]([O-])cc2)CCN(C)C1 (single isomer, unassigned) [69a]"
2,7,"Cc1ccc2c(c1)c1c(n2CC(O)c2cc[n+]([O-])cc2)CCN(C)C1 (single isomer, unassigned) [69b]"
3,21,"Cc1ccc2c(c1)c1c(n2CC(O)c2ccncc2)CC2CCCN2C1 (single isomer, unassigned) [76a]"
4,18,"Cc1ccc2c(c1)c1c(n2CC(O)c2ccncc2)CC2CCCN2C1 (single isomer, unassigned) [76b]"
5,5,"Cc1ccc2c(c1)c1c(n2CC(O)c2ccncc2)CC2CCCN2C1 (single isomer, unassigned) [76c]"
6,40,"Cc1ccc2c(c1)c1c(n2CC(O)c2ccncc2)CC2CCCN2C1 (single isomer, unassigned) [76d]"

# Biological target: T3, rat adrenergic α1B receptor (Rattus norvegicus, UniProt P15823)
# T3 construct: rat adrenergic α1B receptor obtained from Wistar Rat liver; from tissue; host or cells: Wistar rat liver
# T3 sequence (P15823 1-515): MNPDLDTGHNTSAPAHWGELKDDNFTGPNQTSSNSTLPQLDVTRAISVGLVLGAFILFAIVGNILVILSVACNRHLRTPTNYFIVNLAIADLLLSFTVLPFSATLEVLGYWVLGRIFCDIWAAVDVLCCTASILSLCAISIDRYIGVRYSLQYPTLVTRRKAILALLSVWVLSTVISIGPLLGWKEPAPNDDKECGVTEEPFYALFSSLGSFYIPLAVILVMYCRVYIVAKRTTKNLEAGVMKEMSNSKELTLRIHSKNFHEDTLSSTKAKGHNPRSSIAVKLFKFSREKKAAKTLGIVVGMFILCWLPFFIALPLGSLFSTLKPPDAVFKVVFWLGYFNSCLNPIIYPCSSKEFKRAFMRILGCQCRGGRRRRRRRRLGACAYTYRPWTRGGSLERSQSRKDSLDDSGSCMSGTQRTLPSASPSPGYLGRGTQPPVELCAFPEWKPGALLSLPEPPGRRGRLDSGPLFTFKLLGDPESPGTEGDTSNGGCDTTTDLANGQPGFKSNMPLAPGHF
# Assay: Radioligand binding, adrenergic α1B ([3H]Prazosin)
# Set-up: species or system Wistar Rat
# Conditions: 0.03 μM compound
# How it was run: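 Incubation ran 60 min at 25 °C in Tris-HCl buffer (50 mM, pH 7.4, 0.5 mM EDTA) with Wistar rat liver α1B receptor. 10 μM phentolamine set non-specific binding.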
row,"Percentage inhibition of ligand binding, Adrenergic α1B [%]",Structure (SMILES)
1,30,"Cc1ccc2c(c1)c1c(n2CC(C)(O)c2ccc(C)nc2)CN(C)CC1 (single isomer, unassigned) [196a]"

# Same assay, conditions: 0.1 μM compound, 0.1 µM
row,Structure (SMILES),"Percentage inhibition of ligand binding, Adrenergic α1B [%]"
1,"Cc1ccc2c(c1)c1c(n2CC(c2ccncc2)N(C)C)CCN(C)C1 (single isomer, unassigned) [150a]",16
2,"Cc1cnc2c(c1)c1c(n2CC(N)c2ccc(C#N)cc2)CCN(C)C1 (single isomer, unassigned) [159b]",53

# Other lines, results leading:
row,"Percentage inhibition of ligand binding, Adrenergic α1B [%]",Structure (SMILES)
1,35,"Cc1cnc2c(c1)c1c(n2CC(N)c2ccc(C#N)cc2)CCNC1 (single isomer, unassigned) [160a]"
2,65,"Cc1cnc2c(c1)c1c(n2CC(N)c2ccc(C#N)cc2)CCNC1 (single isomer, unassigned) [160b]"
3,54.6,"Cc1ccc2c(c1)c1c(n2CC(C)(O)c2ccc(C)nc2)CN(C)CC1 (single isomer, unassigned) [196a]"

# Same assay, conditions: compound at 0.1 μM
row,"Percentage inhibition of ligand binding, Adrenergic α1B [%]",Structure (SMILES)
1,6,"OCCN1CCc2c(c3cc(Cl)ccc3n2CC(O)c2ccncc2)C1 (single isomer, unassigned) [II-93a]"

# Same assay, conditions: compound at 0.1 μM, repeat datapoints each shown, 0.1 µM
row,"Percentage inhibition of ligand binding, Adrenergic α1B (0.1 μM) [%]",Structure (SMILES)
1,4,"Cc1ccc2c(c1)c1c(n2CC(O)c2cc[n+]([O-])cc2)CCN(C)C1 (single isomer, unassigned) [69a]"
2,8,"Cc1ccc2c(c1)c1c(n2CC(O)c2cc[n+]([O-])cc2)CCN(C)C1 (single isomer, unassigned) [69b]"
3,78,"Cc1ccc2c(c1)c1c(n2CC(O)c2ccncc2)CC2CCCN2C1 (single isomer, unassigned) [76a]"
4,71,"Cc1ccc2c(c1)c1c(n2CC(O)c2ccncc2)CC2CCCN2C1 (single isomer, unassigned) [76b]"
5,33,"Cc1ccc2c(c1)c1c(n2CC(O)c2ccncc2)CC2CCCN2C1 (single isomer, unassigned) [76c]"
6,51,"Cc1ccc2c(c1)c1c(n2CC(O)c2ccncc2)CC2CCCN2C1 (single isomer, unassigned) [76d]"
